According to patent US11712473B2, “Sensitizer-peptide conjugate” (UNIVERSITY OF ULSTER, priority 2017, dated 2023):
Entries after “also recorded” stand apart in the source; their conditions may differ. RB = Rose Bengal carboxylic acid derivative, attached to the N-terminus

Experiments:
[1] = test system: MCF-7 invasive breast ductal carcinoma cells; assay: PDT of MCF-7 breast cancer cells, MTT cell viability assay; format: cell-based, Human; conditions: 0.05, 0.1, 0.5, 1 μM, 3 h incubation, white light 1 min (22.8 J/cm^2), viability 24 h later
Procedure: (§1) Human MCF-7 invasive breast ductal carcinoma cells were maintained Dulbecco's Modified Eagle Media (DMEM) supplemented with 10% foetal bovine serum (FBS) and 1% penicillin streptomycin. The cells were incubated at 37° C. in a humidified 5% (v/v) CO2 atmosphere. Cells were seeded at a concentration of 5×10^3 cells per well in 96-well tissue culture plate for 24 hours. The medium was removed from each well and the cells incubated for 3 h with drug (100 μL) at concentrations of 0.05 μM, 0.1 μM, 0.5 μM and 1 μM in media. The drug solution was then removed and the cells washed twice with PBS, fresh media was added and selected wells exposed to white light for 1 min (22.8 J/cm^2). Fresh media was then added to each of the wells and cell viability determined 24 h later using a MTT assay. Each experiment was repeated on 3 separate occasions with an n=6 on each occasion.

[2] = test system: PANC-1 epithelioid carcinoma cells; assay: PDT of PANC-1 pancreatic cancer cells, MTT cell viability assay; format: cell-based, Human; conditions: 0.05, 0.1, 0.5, 1 μM, 3 h incubation, white light 1 min (22.8 J/cm^2), viability 24 h later
Procedure: as §1, with “PANC-1 epithelioid” for “MCF-7 invasive breast ductal”

[3] = test system: B16-F10-Luc2 melanoma tumour; assay: PDT and SDT treatment of ectopic B16 melanoma tumours in SCID mice (Example 6); format: in vivo; conditions: 100 μL of 100 μM by tail vein injection
Procedure: B16-F10-Luc2 cells (3×10^5) maintained as described in Example 3, were re-suspended in 100 μL of PBS and implanted into the rear dorsum of SCID mice. Four days after implantation tumour measurements were taken using calipers and tumour volume calculated from the geometric mean diameter using the equation: tumour volume=4πR^3/3. The animals were then randomly distributed into […] (n=5): Group 1 involved untreated animals; Group 2 treated with the RB-(KLAKLAK)2 (SEQ ID NO. 1) conjugate and no light; Group 3 treated with the RB-(KLAKLAK)2 (SEQ ID NO. 1) conjugate and light; Group 4 treated with the RB-(KLAKLAK)2 (SEQ ID NO. 1) conjugate and SDT, and Group 5 treated with RB and light. Following induction of anaesthesia (intraperitoneal injection of Hypnorm/Hypnovel), a 100 μL aliquot of PBS containing 100 μM RB or the RB-(KLAKLAK)2 (SEQ ID NO. 1) conjugate was administered by tail vein injection. Group 3 and Group 5: 30 minutes later tumours were exposed to white light for 3 min (68.4 J/cm^−2). […] After treatment, animals were allowed to recover from anaesthesia and tumour volume was monitored for 12 days with animals retreated using the same conditions on days 1, 2, 7 and 9. The % increase in tumour volume was calculated employing the pre-treatment measurements for each group. […]

[4] = test system: B16-F10-Luc2 melanoma cells; assay: SDT of B16 melanoma cells, MTT cell viability assay; format: cell-based, murine; conditions: 2.5, 5.0, 10 μM, 3 hours incubation, ultrasound, viability 24 hours later
[5] = test system: B16-F10-Luc2 melanoma cells; assay: PDT of B16 melanoma cells, MTT cell viability assay; format: cell-based, murine; conditions: 2.5, 5.0, 10 μM, 3 h incubation, white light 1 min (22.8 J/cm^2), viability 24 h later
Procedure: (§2) Murine melanoma B16-F10 Luc-2 cells were maintained Dulbecco's Modified Eagle Media (DMEM) supplemented with 10% foetal bovine serum (FBS) and 1% penicillin streptomycin. The cells were incubated at 37° C. in a humidified 5% (v/v) CO2 atmosphere. Cells were seeded at a concentration of 4×10^3 cells per well in 96-well tissue culture plate for 24 hours. The medium was removed from each well and the cells incubated for 3 h with drug (100 μL) at concentrations of 2.5 μM, 5.0 μM and 10 μM in media. The drug solution was then removed and selected wells exposed to white light for 1 min (22.8 J/cm^2). Fresh media was then added to each of the wells and cell viability determined 24 h later using a MTT assay. Each experiment was repeated on 3 separate occasions with an n=6 on each occasion.

[6] = test system: B16-F10-Luc2 melanoma cells; assay: PDT of B16 melanoma cells, bioluminescent assay; format: cell-based, murine; conditions: 2.5, 5.0, 10 μM plus white light (22.8 J/cm^2)
Procedure: as §2
For the bioluminescent assay, imaging was undertaken using a Xenogen IVIS-100 bioluminescence/fluorescence optical imaging system. Treatments were performed as described above. D-Luciferin at 1.5% w/w was then added to treated wells and bioluminescence intensity was quantified 5 min later using the IVIS-100 system and Living Image Software as per protocol (Caliper LifeSciences). Regions of interest (RoI) were drawn around the wells to evaluate the intensity of signal emitted and expressed photons/second (p/s).

[7] = test system: B16-F10-Luc2 melanoma tumour; assay: PDT of B16 melanoma tumour growth in a mouse model (Example 5); format: in vivo, SCID mice; conditions: for tumour growth / tumour size, as part of PDT: 100 μL of 100 μM by tail vein injection, white light 3 min (68.4 J/cm^-2) 30 minutes later, retreated days 1, 2, 7, 9
Procedure: In these studies all animals were treated humanely and in accordance with licensed procedures under the UK Animals (Scientific Procedures) Act 1986. B16-F10-Luc2 cells (3×10^5) maintained as described in Example 3, were re-suspended in 100 μL of PBS and implanted into the rear dorsum of SCID mice. Four days after implantation tumour measurements were taken using calipers and tumour volume calculated from the geometric mean diameter using the equation: tumour volume=4πR^3/3. The animals were then randomly distributed into four groups (n=5): Group 1 involved untreated animals; Group 2 treated with the RB-(KLAKLAK)2 (SEQ ID NO. 1) conjugate and no light; Group 3 treated with the RB-(KLAKLAK)2 (SEQ ID NO. 1) conjugate and light; Group 4 treated with RB and light. Following induction of anaesthesia (intraperitoneal injection of Hypnorm/Hypnovel), a 100 μL aliquot of PBS containing 100 μM RB or the RB-(KLAKLAK)2 (SEQ ID NO. 1) conjugate was administered by tail vein injection. Group 3 and Group 4: 30 minutes later tumours were exposed to white light for 3 min (68.4 J/cm^−2). After treatment, animals were allowed to recover from anaesthesia and tumour volume was monitored for 12 days with animals retreated using the same conditions on days 1, 2, 7 and 9. The % increase in tumour volume was calculated employing the pre-treatment measurements for each group. On day 13, the animals were euthanized and the tumours were removed for analysis.

| Substance | cell viability (MTT), cell killing as part of PDT [1] | cell viability (MTT), cell killing as part of PDT [2] | tumour growth, as part of SDT ([3]; ultrasound 3.5 min, 3 W cm-2, 1 MHz, duty cycle 30%) | tumour growth, as part of PDT ([3]; white light 3 min (68.4 J/cm^-2) 30 minutes later) | cell viability (MTT), cell killing as part of SDT [4] | cell viability (MTT), cytotoxic effect as part of PDT [5] | cell viability (MTT), cytotoxic effect as part of PDT ([5]; listed as RB-C(KLAKLAK)2 L enantiomer) | bioluminescent intensity relative to the control [6] | tumour growth / tumour size, as part of PDT [7] | tumour growth / tumour size, as part of PDT ([7]; listed as conjugate of Rose Bengal and a peptide having the amino acid sequence defined by) | tumour growth, as part of SDT ([7]; as stated in the result sentence of Example 5) |
| --- | --- | --- | --- | --- | --- | --- | --- | --- | --- | --- | --- |
| RB-C(KLAKLAK): conjugate of Rose Bengal and peptide Cys-Lys-Leu-Ala-Lys-Leu-Ala-Lys (SEQ ID NO: 6) ({RB}-CKLAKLAK-NH2; not fully specified) | effectively killed MCF-7 invasive breast ductal carcinoma cells | effectively killed PANC-1 epithelioid carcinoma cells |  |  |  |  |  |  |  |  |  |
| RB-(KLAKLAK)2: conjugate of Rose Bengal and all-D peptide Lys-Leu-Ala-Lys-Leu-Ala-Lys-Lys-Leu-Ala-Lys-Leu-Ala-Lys (SEQ ID NO: 1), no cysteine (KLAKLAKKLAKLAK; not fully specified; Rose Bengal conjugate; all-D amino acids) |  |  | effectively reduced B16-F10-Luc2 melanoma tumour growth | effectively reduced B16-F10-Luc2 melanoma tumour growth; also recorded: PDT was superior |  |  |  |  |  |  |  |
| RB-C(KLAKLAK)2: conjugate of Rose Bengal and peptide Cys-Lys-Leu-Ala-Lys-Leu-Ala-Lys-Lys-Leu-Ala-Lys-Leu-Ala-Lys (SEQ ID NO: 2) ({RB}-CKLAKLAKKLAKLAK-NH2; also: Rose Bengal conjugate, site not given here) | effectively killed MCF-7 invasive breast ductal carcinoma cells | effectively killed PANC-1 epithelioid carcinoma cells |  |  | effectively killed B16-F10-Luc2 melanoma cells | significantly better than photodynamic therapy using Rose Bengal alone; also recorded: effectively killed B16-F10-Luc2 melanoma cells | more potent cytotoxic effect than the RB-C(KLAKLAK)2 (SEQ ID NO. 2) D enantiomer | significant reduction in bioluminescence | effectively reduced B16-F10-Luc2 melanoma tumour growth; also recorded: inhibited tumour growth to a greater extent | significant reduction in tumour size | effectively reduced B16-F10-Luc2 melanoma tumour growth |
